The text below walks through data of patent US10532985B2, “Heterocycle and carbocycle derivatives having TRKA inhibitory activity” (Shionogi & Co., Ltd., priority 2014, dated 2020).

pIC50: −log10 of the molar value.

In the first test the target is T1, human TrkA (Homo sapiens, UniProt P04629).
T1 construct: purchased Lifetechnologies PV3144
T1 sequence (P04629 33-796): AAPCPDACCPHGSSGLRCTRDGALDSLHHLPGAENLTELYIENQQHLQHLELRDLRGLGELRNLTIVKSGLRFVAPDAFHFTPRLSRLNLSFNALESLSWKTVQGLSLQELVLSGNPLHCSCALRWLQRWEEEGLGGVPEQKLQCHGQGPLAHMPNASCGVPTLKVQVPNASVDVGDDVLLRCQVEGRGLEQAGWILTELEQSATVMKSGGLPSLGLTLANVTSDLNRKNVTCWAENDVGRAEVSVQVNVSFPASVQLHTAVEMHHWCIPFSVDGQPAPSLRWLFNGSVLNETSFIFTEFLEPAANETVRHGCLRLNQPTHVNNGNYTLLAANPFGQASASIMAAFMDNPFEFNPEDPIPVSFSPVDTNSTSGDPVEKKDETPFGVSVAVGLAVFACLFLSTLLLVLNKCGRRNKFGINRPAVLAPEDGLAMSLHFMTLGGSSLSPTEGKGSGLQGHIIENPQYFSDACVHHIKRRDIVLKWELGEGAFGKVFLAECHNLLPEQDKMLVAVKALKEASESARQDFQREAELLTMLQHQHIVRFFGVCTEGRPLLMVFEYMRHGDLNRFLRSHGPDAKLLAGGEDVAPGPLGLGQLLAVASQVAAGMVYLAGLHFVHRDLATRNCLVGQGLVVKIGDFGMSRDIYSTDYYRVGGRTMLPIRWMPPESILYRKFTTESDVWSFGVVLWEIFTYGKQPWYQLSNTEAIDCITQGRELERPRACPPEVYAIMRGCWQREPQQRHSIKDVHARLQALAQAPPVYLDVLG
Nature of the test: Test Example 2: Human TrkA Inhibition Assay. The class given is biochemical. The settings on record: Test Example 2; human TrkA 2.5 nmol/L, ATP 500 μmol/L, 90 min at room temperature; read-out: TrkA inhibitory activity IC50. As for the experimental part:
After the incubation for 90 min at room temperature, ten μL of termination buffer (100 mmol/L HEPES, 40 mmol/L ethylenediaminetetraacetic acid (EDTA), 10 mmol/L magnesium chloride, 0.003 vol % Brij-35, 0.004 vol % Tween20, 1 mmol/L DTT and 0.16 vol % Coating Reagent 3) was added in each well to stop the enzyme reaction. Fluorescent intensities (FI) of phosphorylated and non-phosphorylated fluorescent substrates were measured by LabChip EZReader II (Caliper LifeSciences, Inc.) and conversion ratio (CR) was calculated by the following formula-1. The CR in the well applied with DMSO alone was used as a negative control and the CR in the well without applying TrkA was used as a positive control. The inhibitory effect of each compound on TrkA phosphorylation was calculated by the following formula-2. CR (%)=(FI of phosphorylated substrate/(FI of phosphorylated substrate+FI of non-phosphorylated substrate))×100 (Formula-1) Inhibitory effect on TrkA phosphorylation (%)=(1−(CR in compound treated well−CR in positive control)/(CR in negative control−CR in positive control))×100. (Formula-2)
Consider `Cc1c(-c2cnn(C)c2)nn(-c2ccccc2)c1NC(=O)N[C@@H]1CN(CC2(C)COC2)C[C@H]1c1ccc(F)c(F)c1` [Compound I-142], for which the pIC50 is 5.89.

Turning to `COCCC1(C)C[C@@H](NC(=O)Nc2c(C)c(-c3cnn(C)c3)nn2-c2ccccc2)[C@H](c2ccccc2)C1` (stereo partly shown) [Compound I-132], the pIC50 is 6.32.

As to `COCC(CN1CC(F)(F)C1)N1C[C@@H](NC(=O)Nc2c(C)c(-c3cnn(C)c3)nn2-c2ccccc2)[C@H](c2ccc(F)c(F)c2)C1` (stereo partly shown) [Compound I-106], the pIC50 was 7.10.

The same test, now with this note: human TrkA inhibition, Test Example 2; class symbols A/B/C; read-out: IC50_nM.
On to `COCCN1C[C@@H](NC(=O)Nc2c(C)c(-c3cnn(C)c3)nn2-c2ccccc2)[C@H](c2cccc3c2OCO3)C1` (racemic) [Compound I-75], for which the pIC50 was 6.00 to 7.00.

Consider `Cc1c(-c2cnn(C)c2)nn(-c2ccccc2)c1NC(=O)N[C@@H]1CN(CC2CCCO2)C[C@H]1c1ccc(F)c(F)c1` (stereo partly shown) [Compound I-24], for which the pIC50 was 6.00 to 7.00.

Take `COCCN1CCC(c2ccc(F)c(F)c2)C(NC(=O)Nc2c(C)c(-c3cnn(C)c3)nn2-c2ccccc2)C1` (stereo not shown) [Compound I-4]: the pIC50 is under 6.00.

With `COCC(CN1CCOCC1)N1C[C@@H](NC(=O)Nc2c(C)c(-c3cnn(C)c3)nn2-c2ccccc2)[C@H](c2ccc(F)c(F)c2)C1` (stereo partly shown) [Compound I-158], the pIC50 is under 6.00.

For the compound `COCCN1C[C@@H](NC(=O)Nc2c(C)c(-c3cnn(C)c3)nn2-c2ccccc2)[C@H](c2cccc(-c3cccc(C#N)c3)c2)C1` (racemic) [Compound I-52], the pIC50 is 6.00 to 7.00.

Turning to `COCCN1C[C@@H](NC(=O)Nc2c(C)c(-c3cnn(C)c3)nn2-c2ccccc2)[C@H](c2ccc3c(c2)N(C(=O)OC(C)(C)C)CCO3)C1` (racemic) [Compound I-167], the pIC50 was under 6.00.

`COCC(C(=O)N(C)C)N1C[C@@H](NC(=O)Nc2c(C)c(-c3cnn(C)c3)nn2-c2ccccc2)[C@H](c2ccc(F)c(F)c2)C1` (stereo partly shown) [Compound I-155]: the pIC50 was under 6.00.

For `COCC(C(=O)N(C)OC)N1C[C@@H](NC(=O)Nc2c(C)c(-c3cnn(C)c3)nn2-c2ccccc2)[C@H](c2ccc(F)c(F)c2)C1` (stereo partly shown) [Compound I-169], the pIC50 was under 6.00.

For the compound `COCCN1C[C@@H](NC(=O)Nc2c(C)c(-c3cnn(C)c3)nn2-c2ccccc2)[C@H](c2nc3ccccc3s2)C1` (racemic) [Compound I-153], the pIC50 is under 6.00.

For the compound `Cc1c(-c2cnn(C)c2)nn(-c2ccccc2)c1NC(=O)N[C@@H]1CN(CC(F)(F)F)C(=O)[C@H]1c1ccc(F)c(F)c1` [Compound I-74], the pIC50 is under 6.00.

Regarding `COCOC1C[C@@H](NC(=O)Nc2c(C)c(-c3cnn(C)c3)nn2-c2ccccc2)[C@H](c2ccccc2)C1` (relative stereo) [Compound I-121], the pIC50 is 6.00 to 7.00.

As for `COCCN1C[C@@H](NC(=O)Nc2c(C)c(-c3cnn(C)c3)nn2-c2ccccc2)[C@H](C2CCCCC2)C1` (racemic) [Compound I-9], the pIC50 is 6.00 to 7.00.

As for `COCC(C[n+]1ccccc1)N1C[C@@H](NC(=O)Nc2c(C)c(-c3cnn(C)c3)nn2-c2ccccc2)[C@H](c2ccc(F)c(F)c2)C1` (stereo partly shown) [Compound I-110], the pIC50 is over 7.00.

On to `COCCN1C[C@@H](NC(=O)Nc2c(C)c(-c3cnn(C)c3)nn2-c2ccccc2)[C@H](c2cccc(-c3cccnc3)c2)C1` (racemic) [Compound I-56], for which the pIC50 was under 6.00.

On to `C=C1C[C@@H](NC(=O)Nc2c(C)c(-c3cnn(C)c3)nn2-c2ccccc2)[C@H](c2ccc(F)c(F)c2)C1` (racemic) [Compound I-135], for which the pIC50 is 6.00 to 7.00.

`C=C1C[C@@H](NC(=O)Nc2c(C)c(-c3cnn(C)c3)nn2-c2ccccc2)[C@H](c2ccc(F)cc2)C1` (racemic) [Compound I-65]: the pIC50 is over 7.00.

For the compound `Cc1c(-c2cnn(C)c2)nn(-c2ccccc2)c1NC(=O)NC1CNCCC1c1ccc(F)c(F)c1` (stereo not shown) [Compound I-2], the pIC50 is under 6.00.

With `Cc1c(-c2cnn(C)c2)nn(-c2ccccc2)c1NC(=O)N[C@@H]1CN(c2nn[nH]n2)C[C@H]1c1ccc(F)c(F)c1` [Compound I-148], the pIC50 is under 6.00.

For `Cc1c(-c2cnn(C)c2)nn(-c2ccccc2)c1NC(=O)N[C@@H]1CN(C2COC(=O)C2)C[C@H]1c1ccc(F)c(F)c1` (stereo partly shown) [Compound I-152], the pIC50 was under 6.00.

Turning to `CNC(=O)C(COC)N1C[C@@H](NC(=O)Nc2c(C)c(-c3cnn(C)c3)nn2-c2ccccc2)[C@H](c2ccc(F)c(F)c2)C1` (stereo partly shown) [Compound I-137], the pIC50 was 6.00 to 7.00.

As to `COC(=O)[C@@H]1C[C@@H](NC(=O)Nc2c(C)c(-c3cnn(C)c3)nn2-c2ccccc2)[C@H](c2ccc(F)c(F)c2)N1` (racemic) [Compound I-47], the pIC50 is under 6.00.

On to `Cc1c(-c2cnn(C)c2)nn(-c2ccccc2)c1NC(=O)N[C@@H]1CN(CCS(C)(=O)=O)C[C@H]1c1ccc(F)c(F)c1` [Compound I-46], for which the pIC50 is under 6.00.

Consider `COCCN1C[C@@H](NC(=O)Nc2c(C)c(-c3cnn(C)c3)nn2-c2ccccc2)[C@H](c2nc3ccccc3o2)C1` (racemic) [Compound I-156], for which the pIC50 was under 6.00.

On to `COCCC(=O)N1C[C@@H](NC(=O)Nc2c(C)c(-c3cnn(C)c3)nn2-c2ccccc2)[C@H](c2ccc(F)c(F)c2)C1` [Compound I-27], for which the pIC50 is under 6.00.

Regarding `Cc1c(-c2cnn(C)c2)nn(-c2ccccc2)c1NC(=O)N[C@@H]1CN(C=O)C[C@H]1c1ccc(F)c(F)c1` [Compound I-35], the pIC50 was under 6.00.

For `CCON=C1C[C@@H](NC(=O)Nc2c(C)c(-c3cnn(C)c3)nn2-c2ccccc2)[C@H](c2ccccc2)C1` [Compound I-120], the pIC50 is 6.00 to 7.00.

Consider `COCC(CNC(=N)N)N1C[C@@H](NC(=O)Nc2c(C)c(-c3cnn(C)c3)nn2-c2ccccc2)[C@H](c2ccc(F)c(F)c2)C1` (stereo partly shown) [Compound I-145], for which the pIC50 was under 6.00.

Consider `CC(=O)N1C[C@@H](NC(=O)Nc2c(C)c(-c3cnn(C)c3)nn2-c2ccccc2)[C@H](c2ccc(F)c(F)c2)C1` [Compound I-28], for which the pIC50 was under 6.00.

With `COCC(=O)N1C[C@@H](NC(=O)Nc2c(C)c(-c3cnn(C)c3)nn2-c2ccccc2)[C@H](c2ccc(F)c(F)c2)C1` [Compound I-26], the pIC50 is under 6.00.

Turning to `COCC(CNS(C)(=O)=O)N1C[C@@H](NC(=O)Nc2c(C)c(-c3cnn(C)c3)nn2-c2ccccc2)[C@H](c2ccc(F)c(F)c2)C1` (stereo partly shown) [Compound I-140], the pIC50 was 6.00 to 7.00.

In the case of `COCCN1C[C@@H](NC(=O)Nc2c(C)c(-c3cnn(C)c3)nn2-c2ccccc2)[C@H](c2cccc(-c3ccc(C#N)cc3)c2)C1` (racemic) [Compound I-50], the pIC50 was over 7.00.

On to `COC1CCCCC1N1C[C@@H](NC(=O)Nc2c(C)c(-c3cnn(C)c3)nn2-c2ccccc2)[C@H](c2ccc(F)c(F)c2)C1` (stereo partly shown) [Compound I-176], for which the pIC50 is under 6.00.

For `Cc1c(-c2cnn(C)c2)nn(-c2ccccc2)c1NC(=O)N[C@@H]1CN(Cc2ccccc2)[C@H]1c1ccccc1` (racemic) [Compound I-11], the pIC50 is under 6.00.

Regarding `COCCCN1[C@@H]2CC[C@H]1[C@@H](c1ccc(F)c(F)c1)[C@@H]2NC(=O)Nc1c(C)c(-c2cnn(C)c2)nn1-c1ccccc1` (racemic) [Compound I-70], the pIC50 is under 6.00.

Regarding `COCCN1C[C@H](NC(=O)Nc2c(C)c(-c3cnn(C)c3)nn2-c2ccccc2)[C@H](c2ccc(F)c(F)c2)C1` (racemic) [Compound I-6], the pIC50 was under 6.00.

For `COCCN1C[C@@H](NC(=O)Nc2c(C)c(-c3cnn(C)c3)nn2-c2ccccc2)[C@H](c2ccc3cccnc3c2)C1` (racemic) [Compound I-150], the pIC50 was under 6.00.

Take `COCCN1C[C@@H](NC(=O)Nc2c(C)c(-c3cnn(C)c3)nn2-c2ccccc2)[C@H](c2ccc(C(=O)O)cc2)C1` (racemic) [Compound I-83]: the pIC50 was under 6.00.

For `COCCN1C[C@@H](NC(=O)Nc2c(C)c(-c3cnn(C)c3)nn2-c2ccccc2)[C@H](c2cccc(-c3cccc(C(=O)OC)c3)c2)C1` (racemic) [Compound I-57], the pIC50 was 6.00 to 7.00.

For `COCC(CCl)N1C[C@@H](NC(=O)Nc2c(C)c(-c3cnn(C)c3)nn2-c2ccccc2)[C@H](c2ccc(F)c(F)c2)C1` (stereo partly shown) [Compound I-99], the pIC50 is over 7.00.

With `COCC1(O)C[C@@H](NC(=O)Nc2c(C)c(-c3cnn(C)c3)nn2-c2ccccc2)[C@H](c2ccccc2)C1` (stereo partly shown) [Compound I-164], the pIC50 is under 6.00.

Consider `COCCN1C[C@@H](NC(=O)Nc2c(C)c(-c3cnn(C)c3)nn2-c2ccccc2)[C@H](c2ccc(C(=O)OC)cc2)C1` (racemic) [Compound I-20], for which the pIC50 was 6.00 to 7.00.

On to `Cc1c(-c2cnn(C)c2)nn(-c2ccccc2)c1NC(=O)N[C@@H]1CN(CCNC(=O)OC(C)(C)C)C[C@H]1c1ccc(F)c(F)c1` [Compound I-31], for which the pIC50 was under 6.00.

For the compound `COCCN1C[C@@H](NC(=O)Nc2c(C)c(-c3cnn(C)c3)nn2-c2ccccc2)[C@H](c2ccc3oc(=O)[nH]c3c2)C1` (racemic) [Compound I-149], the pIC50 was under 6.00.

In the case of `Cc1c(-c2cnn(C)c2)nn(-c2ccccc2)c1NC(=O)N[C@@H]1CN(C2CC(F)(F)C2)C[C@H]1c1ccc(F)c(F)c1` [Compound I-38], the pIC50 is under 6.00.

With `CCOC(=O)C=C1C[C@@H](NC(=O)Nc2c(C)c(-c3cnn(C)c3)nn2-c2ccccc2)[C@H](c2ccccc2)C1` [Compound I-126], the pIC50 is 6.00 to 7.00.

As for `COCCN1C[C@@H](NC(=O)Nc2c(C)c(-c3cnn(C)c3)nn2-c2ccccc2)[C@H](c2cccc(C3=CCCCC3)c2)C1` (racemic) [Compound I-58], the pIC50 is under 6.00.
